Results on 29 compounds are retold here after US8629084B2, “Iodine-phenyl-substituted cyclic cetoenols” (Bayer CropScience AG, priority 2004, dated 2014).

Molecules are shown by their SMILES.

The nature of data set [1]: logP determination by HPLC on reversed-phase column (C18), EEC Directive 79/831 Annex V.A8. The settings on record: for log P: value in preparation example text. In kind it is physicochemical. On the procedure: • The logP values given in the Tables and Preparation Examples above are determined in accordance with EEC Directive 79/831 Annex V.A8 by HPLC (High Performance Liquid Chromatography) on a reversed-phase column (C18). Temperature: 43° C.
The determination is carried out in the acidic range at pH 2.3 using the mobile phases 0.1% aqueous phosphoric acid and acetonitrile; linear gradient from 10% acetonitrile to 95% acetonitrile. […]
Calibration is carried out using unbranched alkan-2-ones (having 3 to 16 carbon atoms) with known logP values (determination of the logP values by the retention times using linear interpolation between two successive alkanones).

The next data set deals with cereal. Put plainly: Herbicidal post-emergence action with use of safeners (Example G): container trials with cereal in a greenhouse, mefenpyr 1 day prior to herbicide application. Particulars: without safener. In kind it is in vivo. On the procedure: Herbicidal Post-Emergence Action
Seeds of monocotyledonous and dicotyledonous weed and crop plants are placed into sandy loam in wood fiber pots or in plastic pots, covered with soil and cultivated in a greenhouse, during the vegetation period also outdoors outside of the greenhouse, under good growth conditions. Two to three weeks after sowing, the test plants are treated at the one- to three-leaf stage. The test compounds, formulated as wettable powders (WP) or liquid (EC), are, in various dosages at a water application rate of 300 l/ha (converted), with wetting agent (0.2 to 0.3%) added, sprayed onto the plants and the surface of the soil. […]
If it is additionally to be tested as to whether safeners can improve the plant compatibility of test substances in the case of crop plants, the following options are used for applying the safener: • seeds of the crop plants are, before sowing, dressed with the safener substance (the amount of safener stated in percent, based on the weight of the seed) • before the application of the test substances, the crop plants are sprayed with the safener at a certain application rate per hectare (usually 1 day before the application of the test substances) • the safener is applied together with the test substance as a tank mix (the amount of safener is stated in g/ha or as a ratio, based on the herbicide).
By comparing the effect of test substances on crop plants without or with safener treatment, it is possible to assess the effect of the safener substance.
Container Trials with Cereal in a Greenhouse
Mefenpyr 1 day prior to herbicide application

Data set [2] deals with brown plant hopper (Nilaparvata lugens). The data set is described as follows: Nilaparvata lugens test (hydroponic treatment). Type of data set: in vivo. Particulars: concentration of 20 ppm. On the procedure: Nilaparvata Lugens Test (Hydroponic Treatment)
Solvents: 78 parts by weight of acetone • • 1.5 parts by weight of dimethylformamide
Emulsifier: 0.5 part by weight of alkylaryl polyglycol ether
To produce a suitable preparation of active compound, 1 part by weight of active compound is mixed with the stated amounts of solvents and emulsifier, and the concentrate is diluted with emulsifier-containing water to the desired concentration.
The active compound preparation is pipetted into water. The stated concentration refers to the amount of active compound per volume unit of water (mg/l=ppm). After the desired period of time, the water is infected with the brown plant hopper (Nilaparvata lugens).
After the desired period of time, the effect in % is determined. 100% means that all plant hoppers have been killed; 0% means that none of the plant hoppers have been killed.

Setting [3] is: HPLC, reversed-phase C18, 43° C., acidic range pH 2.3 (0.1% aqueous phosphoric acid/acetonitrile), table of formula (I-2-c).
[4] abbreviates: summer wheat, 25 g of a.i./ha, 10 days after application.
Where [5] appears, read: summer wheat, 50 g of a.i./ha, 10 days after application.
[6] abbreviates: summer wheat, 100 g of a.i./ha, 10 days after application.
Where [7] appears, read: HPLC, reversed-phase C18, 43° C., acidic range pH 2.3 (0.1% aqueous phosphoric acid/acetonitrile).
Setting [8] is: compounds of formula (I-2-a), HPLC reversed-phase C18, 43° C., acidic range pH 2.3, 0.1% aqueous phosphoric acid/acetonitrile.
The mark [9] stands for this setting: compounds of formula (I-2-b), HPLC reversed-phase C18, 43° C., acidic range pH 2.3, 0.1% aqueous phosphoric acid/acetonitrile.

Consider `CCc1cc(I)cc(C)c1C1=C(OC(=O)OC(C)C)C(C)(C)OC1=O` [I-2-c-3], for which the logP (in general, a log measure of how a compound divides between an organic and an aqueous phase) in data set [1] (setting [3]) worked out at 4.66.
On to `Cc1cc(C)c(C2=C(O)C3(CCC(C)CC3)NC2=O)c(I)c1` (stereo not shown) [Example I-1-a-3], for which the “Summer wheat observed (%)” value amounted to 10% in the data set on cereal (summer wheat, 12.5 g of a.i./ha, 10 days after application); 20% in the data set with cereal (setting [4]); 30% in the data set on cereal (setting [5]); 40% in the data set with cereal (setting [6]).
With `CC1(C)OC(=O)C(c2ccccc2I)=C1O` [Example I-2-a-1], in data set [1] (setting [7]), the log P (usually the decadic logarithm of the partition coefficient of the neutral form, usually between octanol and water) came out at 1.80.
In the case of `CCc1cc(I)cc(C)c1C1=C(O)C2(CCC(OC)CC2)OC1=O` (stereo not shown) [Example I-2-a-6], the lipophilicity (logP) in data set [1] (setting [8]) came out at 2.92.
`CC(C)OC(=O)OC1=C(c2ccccc2I)C(=O)OC1(C)C` [Example I-2-c-1]: the “log P” value in data set [1] (setting [7]) was 3.47.
With `CCc1cc(I)cc(C)c1C1=C(O)C2(CCCC2)OC1=O` [I-2-a-8], the logP in data set [1] (setting [8]) stood at 3.00.
Regarding `CCc1cc(I)cc(C)c1C1=C(OC(=O)OC(C)C)C2(CCC(OC)CC2)OC1=O` (stereo not shown) [I-2-c-4], in data set [1] (setting [3]), the log partition coefficient (logP) is given as 4.77.
In data set [1] (setting [8]), `CCc1cc(I)cc(C)c1C1=C(O)C(C)(C)OC1=O` [I-2-a-7] had a lipophilicity (logP) of 2.81.
The compound `COC1CCC2(CC1)OC(=O)C(c1cc(C)ccc1I)=C2OC(=O)C(C)(C)C` (single isomer, unassigned) [Example I-2-b-7] registered a logP in data set [1] (setting [9]) of 4.24.
In data set [1] (setting [8]), `CCc1cc(I)cc(C)c1C1=C(O)C2(CCOCC2)OC1=O` [Example I-2-a-5] returned a logP of 2.63.
Turning to `CC(C)C(=O)OC1=C(c2ccccc2I)C(=O)OC1(C)C` [Example I-2-b-1], the lipophilicity (log P) in data set [1] (setting [7]) turned out to be 3.53.
`Cc1ccc(I)c(C2=C(O)C3(CCCC3)OC2=O)c1` [I-2-a-3]: the logP in data set [1] (setting [8]) is 2.51.
Turning to `COC1CCC2(CC1)OC(=O)C(c1ccccc1I)=C2O` (stereo not shown) [Example I-2-a-2], in data set [1] (setting [8]), the logP came to 1.92. In addition, in data set [2], the “efficacy (plant hoppers killed)” value is reported as ≥ 80%.
Consider `COC1CCC2(CC1)OC(=O)C(c1c(C)cc(I)cc1C)=C2O` (stereo not shown) [Example I-2-a-9], for which, in data set [1] (setting [8]), the logP was determined as 2.94.
With `COC1CCC2(CC1)OC(=O)C(c1c(C)cc(I)cc1C)=C2OC(=O)C(C)(C)C` (single isomer, unassigned) [Example I-2-b-13], the logP in data set [1] (setting [9]) is 4.9.
Consider `Cc1cc(I)cc(C)c1C1=C(OC(=O)C(C)(C)C)C2(CCCC2)OC1=O` [Example I-2-b-11], for which, in data set [1] (setting [9]), the lipophilicity (logP) turned out to be 5.26.
On the same count and under the same terms, the same measure for `COC1CCC2(CC1)OC(=O)C(c1c(C)cc(I)cc1C)=C2OC(=O)C(C)(C)C` (single isomer, unassigned) [Example I-2-b-12]: 5.21.
In turn, `COC1CCC2(CC1)OC(=O)C(c1ccccc1I)=C2OC(=O)OC(C)C` (stereo not shown) [I-2-c-2] displayed a lipophilicity (logP) in data set [1] (setting [3]) of 3.54.
`COC1CCC2(CC1)OC(=O)C(c1ccccc1I)=C2OC(=O)C(C)(C)C` (stereo not shown) [Example I-2-b-2] displayed a log partition coefficient (logP) in data set [1] (setting [9]) of 3.95.
The same measure, in the same setting: to `CCc1cc(I)cc(C)c1C1=C(OC(=O)C(C)C)C(C)(C)OC1=O` [I-2-b-8] belongs 4.72.
In data set [1] (setting [8]), `COC1CCC2(CC1)OC(=O)C(c1cc(C)ccc1I)=C2O` (stereo not shown) [Example I-2-a-4] had a log partition coefficient (logP) of 2.19.
Compound `COC1CCC2(CC1)OC(=O)C(c1ccccc1I)=C2OC(=O)C(C)C` (stereo not shown) [Example I-2-b-3] had a log partition coefficient (logP) in data set [1] (setting [9]) of 3.6.
For the compound `CCOC(=O)OC1=C(c2c(C)cc(I)cc2CC)C(=O)NC12CCC(OC)CC2` (stereo not shown) [Example I-1-c-1], in the data set on cereal (the 20th table, summer wheat, 12.5 g of a.i./ha, 10 days after application), the “Summer wheat observed (%)” value was determined as 50%.
Turning to `CCc1cc(I)cc(C)c1C1=C(OC(=O)C(C)C)C2(CCC(OC)CC2)OC1=O` (stereo not shown) [Example I-2-b-10], the “Summer wheat observed (%)” value in the data set with cereal (setting [4]) is reported as 15%; in the data set on cereal (summer wheat, 25 g of a.i./ha, 28 days after application), 25%; in the data set on cereal (setting [5]), 30%; with cereal (summer wheat, 50 g of a.i./ha, 28 days after application), 40%; with cereal (setting [6]), 50%; in the data set on cereal (summer wheat, 100 g of a.i./ha, 28 days after application) it was 50%. Also, the “Summer wheat observed (%)” value in the data set on cereal (summer wheat, 200 g of a.i./ha, 10 days after application) is on record as 70%; in the data set on cereal (summer wheat, 200 g of a.i./ha, 28 days after application), 75%; in the data set on cereal (the 21st table second column (also headed Summer wheat), 25 g of a.i./ha, 10 days after application) it was 60%; in the data set on cereal (the 21st table second column (also headed Summer wheat), 50 g of a.i./ha, 10 days after application) it was 65%. In data set [1] (setting [9]), this compound registered a logP of 4.79.
In data set [1] (setting [9]), `CC(C)(C)C(=O)OC1=C(c2ccccc2I)C(=O)OC1(C)C` [Example I-2-b-4] showed a logP of 3.87.
In the case of `CCc1cc(I)cc(C)c1C1=C(OC(=O)OC(C)C)C2(CCOCC2)OC1=O` [I-2-c-5], in data set [1] (setting [3]), the logP is listed as 4.41.
`Cc1ccc(I)c(C2=C(OC(=O)C(C)(C)C)C3(CCCC3)OC2=O)c1` [Example I-2-b-5]: in data set [1] (setting [9]), the lipophilicity (logP) is on record as 4.68.
In turn, `CCc1cc(I)cc(C)c1C1=C(OC(=O)C(C)C)C2(CCOCC2)OC1=O` [Example I-2-b-9] yielded a logP in data set [1] (setting [9]) of 4.42.
`COC1CCC2(CC1)OC(=O)C(c1cc(C)ccc1I)=C2OC(=O)C(C)(C)C` (single isomer, unassigned) [Example I-2-b-6] had a logP in data set [1] (setting [9]) of 4.57.
